Experimental data from patent US20240043439A1, “COMPOUNDS AS C5AR INHIBITORS” (Kira Pharmaceuticals (Suzhou) Ltd., priority 2020, published 2024).
pIC50: −log10 of the molar value.

Tests used:
C5aR [1] = biological target: T1, C5aR (Homo sapiens (Human), UniProt P21730); assay: Inhibition of C5a-C5aR binding determined by cell migration assay (U937/C5aR cells); assay type: cell-based; conditions: U937/C5aR cell migration towards human C5a, 180 min
Procedure: Migration assay was performed by using polycarbonate membrane with 3.0 µm pore (Corning). U937/C5aR cells were collected and washed twice by PBS; cells were suspended in Hank's balanced salt solution (HBSS)+1% FBS buffer at the density of 6×10^6 cells/ml. Cells were premixed with compound and added to insert well, ligand human C5a and compound were added to bottom well in order, gently mix, incubate for 30 min at 37° C., […]. Put insert plate into bottom well, migrate for 180 min at 37° C., […]. Gently remove the insert well, add 50 μl CellTiter-Glo (Promega), gently shaking for 5 min at room temperature, transfer 150 μl mixture to black plate and read luminescence intensity by
microplate reader (BioTek).

C5aR [2] = biological target: T1, C5aR; assay: Calcium mobilization (U937/C5aR or HEK293/C5aR cells, FLIPR); assay type: cell-based; conditions: agonist human C5a at EC80, FLIPR
In short: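 U937 or HEK293 cells expressing human C5aR, plated overnight, then preincubated 60 min with compound. After Fluo-4 Direct dye loading (50 min at 37 °C, 10 min at room temperature), intracellular calcium rise on FLIPR was triggered by human C5a agonist at EC80.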

[3] = biological target: human C5a receptor (C5aR) (Homo sapiens (Human), UniProt P21730); assay: Inhibition of C5a-C5aR binding (biotinylated human C5a, U937/C5aR cells, FACS)
human C5a receptor (C5aR), sequence (P21730 whole entry): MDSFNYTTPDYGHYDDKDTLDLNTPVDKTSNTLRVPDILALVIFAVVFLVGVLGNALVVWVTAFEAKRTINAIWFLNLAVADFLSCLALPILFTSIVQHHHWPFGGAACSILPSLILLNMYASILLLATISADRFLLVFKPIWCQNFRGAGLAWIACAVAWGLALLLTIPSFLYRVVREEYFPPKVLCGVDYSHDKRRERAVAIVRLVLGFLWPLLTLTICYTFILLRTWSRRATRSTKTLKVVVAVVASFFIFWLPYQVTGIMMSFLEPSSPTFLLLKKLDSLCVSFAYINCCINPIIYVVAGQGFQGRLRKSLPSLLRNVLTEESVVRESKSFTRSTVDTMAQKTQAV
In short: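 U937 cells stably expressing human C5aR, 3×10^6 cells/ml in PBS+0.1% BSA, were co-incubated with compound and biotinylated human C5a (30 nM, working solution) on ice for 120 min. Bound ligand was stained with FITC-streptavidin for 30 min on ice and read by flow cytometry.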

T1 sequence (P21730 whole entry): as above

Work on `Cc1ccc(NC(=O)[C@H]2CCCN(c3ncnc4ccccc34)[C@H]2c2ccc(NC3CCCC3)cc2)cc1C(F)(F)F` [Compound 5, (2R,3S)-2-(4-(cyclopentylamino)phenyl)-N-(4-methyl-3-(trifluoromethyl)phenyl)-1-(quinazolin-4-yl)piperidine-3-carboxamide] yielded a pIC50 (C5aR [1]) of 6.30 to 7.30, a pIC50 (C5aR [2]) of 5.00 to 5.70 and a pIC50 [3] of 6.30 to 7.30.

`Cc1ccc(NC(=O)[C@H]2CCCN(c3ncnc4cnccc34)[C@H]2c2ccc(NC3CCCC3)cc2)cc1C(F)(F)F` [Compound 162, (2R,3S)-2-(4-(cyclopentylamino)phenyl)-N-(4-methyl-3-(trifluoromethyl)phenyl)-1-(pyrido[3,4-d]pyrimidin-4-yl)piperidine-3-carboxamide] was tested, and the pIC50 (C5aR [1]) was 5.70 to 6.30, the pIC50 (C5aR [2]) was 5.00 to 5.70 and the pIC50 [3] was 6.30 to 7.30.

`Cc1cccc(F)c1C(=O)N1C2CCC[C@@H]2C[C@H](C(=O)Nc2cccnc2)[C@@H]1c1ccc(NC2CCCC2)cc1` (relative stereo) [Compound 57, cis-2-(4-(cyclopentylamino)phenyl)-1-(2-fluoro-6-methylbenzoyl)-N-(pyridin-3-yl)octahydro-1H-cyclopenta[b]pyridine-3-carboxamide] was tested, and the pIC50 (C5aR [1]) was 6.30 to 7.30, the pIC50 (C5aR [2]) was 5.00 to 5.70 and the pIC50 [3] was 6.30 to 7.30.

With `Cc1ccc(NC(=O)C2C[C@@H]3CN(C)C[C@@H]3N(C(=O)c3c(C)cccc3F)C2c2ccc(N(C)C3CCCC3)cc2)cc1C(F)(F)F` (relative stereo) [Compound 144, cis-2-(4-(cyclopentyl(methyl)amino)phenyl)-1-(2-fluoro-6-methylbenzoyl)-6-methyl-N-(4-methyl-3-(trifluoromethyl)phenyl)octahydro-1H-pyrrolo[3,4-b]pyridine-3-carboxamide] the pIC50 (C5aR [1]) was 6.30 to 7.30 and the pIC50 (C5aR [2]) was 5.00 to 5.70.

`Cc1ccc(NC(=O)[C@H]2C[C@H]3CCC[C@H]3N(C(=O)c3c(C)cccc3F)[C@H]2c2ccc(NC3CCCC3)cc2)cc1C#N` (racemic) [Compound 62, cis-N-(3-cyano-4-methylphenyl)-2-(4-(cyclopentylamino)phenyl)-1-(2-fluoro-6-methylbenzoyl)octahydro-1H-cyclopenta[b]pyridine-3-carboxamide] gave a pIC50 (C5aR [1]) of 6.30 to 7.30, a pIC50 (C5aR [2]) of 6.30 to 7.30 and a pIC50 [3] of 6.30 to 7.30.

For `Cc1cccc(F)c1C(=O)N1C(c2ccc(NC3CCCC3)cc2)C(C(=O)Nc2cnc3cnn(C)c3c2)C[C@@H]2COC[C@@H]21` (relative stereo) [Compound 189, cis-2-(4-(cyclopentylamino)phenyl)-1-(2-fluoro-6-methylbenzoyl)-N-(1-methyl-1H-pyrazolo[4,3-b]pyridin-6-yl)octahydrofuro[3,4-b]pyridine-3-carboxamide], the pIC50 (C5aR [1]) was 6.30 to 7.30, the pIC50 (C5aR [2]) was 5.00 to 5.70 and the pIC50 [3] was 6.30 to 7.30.

`Cc1cccc(F)c1C(=O)N1C(c2ccc(NC3CCCC3)cc2)C(C(=O)Nc2ccc3c(cnn3C)c2)C[C@@H]2CCC[C@@H]21` (relative stereo) [Compound 147, cis-2-(4-(cyclopentylamino)phenyl)-1-(2-fluoro-6-methylbenzoyl)-N-(1-methyl-1H-indazol-5-yl)octahydro-1H-cyclopenta[b]pyridine-3-carboxamide] showed a pIC50 (C5aR [1]) of 6.30 to 7.30, a pIC50 (C5aR [2]) of 6.30 to 7.30 and a pIC50 [3] greater than 7.30.

`Cc1cccc(F)c1C(=O)N1[C@@H]2COC[C@@H]2C[C@H](C(=O)Nc2ccc3[nH]ncc3c2)[C@@H]1c1ccc(NC2CCCC2)cc1` [Compound 138, (2R,3S,4aR,7aS)-2-(4-(cyclopentylamino)phenyl)-1-(2-fluoro-6-methylbenzoyl)-N-(1H-indazol-5-yl)octahydrofuro[3,4-b]pyridine-3-carboxamide] showed a pIC50 (C5aR [1]) of 5.70 to 6.30, a pIC50 (C5aR [2]) of 5.00 to 5.70 and a pIC50 [3] of 6.30 to 7.30.

For `Cc1cccc(F)c1C(=O)N1[C@@H]2COC[C@@H]2C[C@H](C(=O)Nc2ccc3c(cnn3C)c2)[C@@H]1c1ccc(NC2CCCC2)cc1` [Compound 126, (2R,3S,4aR,7aS)-2-(4-(cyclopentylamino)phenyl)-1-(2-fluoro-6-methylbenzoyl)-N-(1-methyl-1H-indazol-5-yl)octahydrofuro[3,4-b]pyridine-3-carboxamide], the pIC50 (C5aR [1]) was greater than 7.30, the pIC50 (C5aR [2]) was 5.00 to 5.70 and the pIC50 [3] was greater than 7.30.

For `Cc1cccc(F)c1C(=O)N1CCC[C@H](c2nc3cc(C(C)(C)C)ccc3o2)[C@@H]1c1ccc(NC2CCCC2)cc1` [Compound 181, ((2R,3S)-3-(5-(tert-butyl)benzo[d]oxazol-2-yl)-2-(4-(cyclopentylamino)phenyl)piperidin-1-yl)(2-fluoro-6-methylphenyl)methanone], the pIC50 (C5aR [1]) was less than 5.30 and the pIC50 (C5aR [2]) was 5.00 to 5.70.

With `Cc1ccc(NC(=O)C2C[C@@H]3CCC[C@@H]3N(C(=O)c3c(C)cccc3F)C2c2ccc(NC3CCCC3)cc2)cc1C(F)(F)F` (relative stereo) [Compound 193, cis-2-(4-(cyclopentylamino)phenyl)-1-(2-fluoro-6-methylbenzoyl)-N-(4-methyl-3-(trifluoromethyl)phenyl)octahydro-1H-cyclopenta[b]pyridine-3-carboxamide] the pIC50 (C5aR [1]) was 6.30 to 7.30 and the pIC50 (C5aR [2]) was greater than 7.30.

`Cc1cccc(F)c1C(=O)N1C(c2ccc(NC3CCCC3)cc2)C(C(=O)Nc2ccc3c(cnn3C)c2)C[C@@H]2COC[C@@H]21` (relative stereo) [Compound 121, cis-2-(4-(cyclopentylamino)phenyl)-1-(2-fluoro-6-methylbenzoyl)-N-(1-methyl-1H-indazol-5-yl)octahydrofuro[3,4-b]pyridine-3-carboxamide] showed a pIC50 (C5aR [1]) of 6.30 to 7.30, a pIC50 (C5aR [2]) of 6.30 to 7.30 and a pIC50 [3] of 6.30 to 7.30.

For `Cc1cccc(F)c1C(=O)N1C(c2ccc(NC3CCOCC3)cc2)C(C(=O)Nc2ccc3c(cnn3C)c2)C[C@@H]2CCC[C@@H]21` (relative stereo) [Compound 158, cis-1-(2-fluoro-6-methylbenzoyl)-N-(1-methyl-1H-indazol-5-yl)-2-(4-((tetrahydro-2H-pyran-4-yl)amino)phenyl)octahydro-1H-cyclopenta[b]pyridine-3-carboxamide], the pIC50 (C5aR [1]) was greater than 7.30, the pIC50 (C5aR [2]) was 6.30 to 7.30 and the pIC50 [3] was greater than 7.30.

For `Cc1ccc(NC(=O)[C@@H]2CC(O)CN(C(=O)c3c(C)cccc3F)[C@@H]2c2ccc(NC3CCCC3)cc2)cc1C(F)(F)F` (relative stereo) [Compound 204, cis-2-(4-(cyclopentylamino)phenyl)-1-(2-fluoro-6-methylbenzoyl)-5-hydroxy-N-(4-methyl-3-(trifluoromethyl)phenyl)piperidine-3-carboxamide], the pIC50 (C5aR [1]) was 6.30 to 7.30 and the pIC50 (C5aR [2]) was 5.00 to 5.70.

`Cc1ccc(NC(=O)[C@H]2CC[C@@H]3Cc4ccccc4C(=O)N3C2c2ccc(NC3CCCC3)cc2)cc1C(F)(F)F` (relative stereo) [Compound 43, cis-4-(4-(cyclopentylamino)phenyl)-N-(4-methyl-3-(trifluoromethyl)phenyl)-6-oxo-1,3,4,6,11,11a-hexahydro-2H-pyrido[1,2-b]isoquinoline-3-carboxamide] showed a pIC50 (C5aR [1]) of less than 5.30 and a pIC50 (C5aR [2]) of 5.00 to 5.70.

`Cc1cccc(F)c1C(=O)N1C2CCCC2CC(C(=O)Nc2ccc3c(cnn3C)c2)C1c1ccc(CN2CCC[C@@H]2C(F)(F)F)cc1` (stereo in doubt) [Compound 205, cis-1-(2-fluoro-6-methylbenzoyl)-N-(1-methyl-1H-indazol-5-yl)-2-(4-(((R)-2-(trifluoromethyl)pyrrolidin-1-yl)methyl)phenyl)octahydro-1H-cyclopenta[b]pyridine-3-carboxamide] gave a pIC50 (C5aR [1]) greater than 7.30.

With `Cc1ccc(NC(=O)[C@H]2CCCN(S(=O)(=O)c3c(F)c(F)c(F)c(F)c3F)[C@H]2c2ccc(NC3CCCC3)cc2)cc1C(F)(F)F` [Compound 37, (2R,3S)-2-(4-(cyclopentylamino)phenyl)-N-(4-methyl-3-(trifluoromethyl)phenyl)-1-((perfluorophenyl)sulfonyl)piperidine-3-carboxamide] the pIC50 (C5aR [1]) was less than 5.30 and the pIC50 (C5aR [2]) was 5.00 to 5.70.

In the case of `Cc1cccc(F)c1C(=O)N1[C@@H]2CCC[C@@H]2C[C@H](C(=O)Nc2ccc3cnn(C)c3c2)[C@@H]1c1ccc(NC2CCCC2)cc1` (racemic) [Compound 66, cis-2-(4-(cyclopentylamino)phenyl)-1-(2-fluoro-6-methylbenzoyl)-N-(1-methyl-1H-indazol-6-yl)octahydro-1H-cyclopenta[b]pyridine-3-carboxamide], the pIC50 (C5aR [1]) was greater than 7.30 and the pIC50 (C5aR [2]) was 6.30 to 7.30.

With `Cc1ccc(NC(=O)[C@H]2CCCN(C(=O)c3c(C)cccc3F)[C@H]2C2CCC3(CCOC3)CC2)cc1C(F)(F)F` (relative stereo) [Compound 203, cis-1-(2-fluoro-6-methylbenzoyl)-N-(4-methyl-3-(trifluoromethyl)phenyl)-2-(2-oxaspiro[4.5]decan-8-yl)piperidine-3-carboxamide] the pIC50 (C5aR [1]) was 5.70 to 6.30 and the pIC50 (C5aR [2]) was 5.00 to 5.70.

For `Cc1ccc(NC(=O)[C@H]2CCCN[C@H]2c2ccc(N(c3nccc4cccnc34)C3CCCC3)cc2)cc1C(F)(F)F` [Compound 168, (2R,3S)-2-(4-(cyclopentyl(1,7-naphthyridin-8-yl)amino)phenyl)-N-(4-methyl-3-(trifluoromethyl)phenyl)piperidine-3-carboxamide], the pIC50 (C5aR [1]) was less than 5.30 and the pIC50 (C5aR [2]) was 5.00 to 5.70.

`Cc1ccc(NC(=O)[C@H]2CCCN(c3nccc4cccnc34)[C@H]2c2ccc(N(C(=O)OCc3ccccc3)C3CCCC3)cc2)cc1C(F)(F)F` [Compound 164, benzyl cyclopentyl(4-((2R,3S)-3-((4-methyl-3-(trifluoromethyl)phenyl)carbamoyl)-1-(1,7-naphthyridin-8-yl)piperidin-2-yl)phenyl)carbamate] was tested, and the pIC50 (C5aR [1]) was 5.30 to 5.70 and the pIC50 (C5aR [2]) was 5.00 to 5.70.
